Data as given in patent US20120183950A1, “TISSUE ANALYSIS” (priority 2009, published 2012).

Tested on: influenza virus H3N2X31
Type: cell-based
Conditions: human bronchial and parenchymal lung tissue explants, X31 virus, NP-1 antibody, flow cytometry; FIG. 8

Row | SMILES | efficacy as inhibitor of viral infection in the explant model (primary output: percentage of cells infected)
1 | CCOC(=O)C1=C[C@@H](OC(CC)CC)[C@H](NC(C)=O)[C@@H](N)C1 [oseltamivir] | demonstrated the efficacy
2 | Cl.N [ammonium chloride] | demonstrated the efficacy
